test system: RBCs; conditions: Table 1, D-Ala scanning of 1a
Procedure: RBC binding ranked by MESF (molecules of equivalent soluble fluorescence), or intensity of fluorescent signal measured when RBCs were incubated with a given concentration of peptide.
High=MESF value>1000 fluorescent units
Medium=MESF Value from 300 to 1000 fluorescent units
Low=MESF Value from 15 to 300 fluorescent units

| Substance | Classification of RBC binding properties (MESF) |
| --- | --- |
| H-ala-trp-his-pro-trp-ala-met-met-tyr-lys-Gly-Gly-Gly-lys(Biotin)-NH2 [Peptide 1b] | Low (MESF Value from 15 to 300 fluorescent units) |
| H-phe-ala-his-pro-trp-ala-met-met-tyr-lys-Gly-Gly-Gly-lys(Biotin)-NH2 [Peptide 1c] | Does Not Bind (MESF Value below 15 fluorescent units) |
| H-phe-trp-ala-pro-trp-ala-met-met-tyr-lys-Gly-Gly-Gly-lys(Biotin)-NH2 [Peptide 1d] | Medium (MESF Value from 300 to 1000 fluorescent units) |
| H-phe-trp-his-ala-trp-ala-met-met-tyr-lys-Gly-Gly-Gly-lys(Biotin)-NH2 [Peptide 1e] | High (MESF value>1000 fluorescent units) |
| H-phe-trp-his-pro-ala-ala-met-met-tyr-lys-Gly-Gly-Gly-lys(Biotin)-NH2 [Peptide 1f] | Does Not Bind (MESF Value below 15 fluorescent units) |
| H-phe-trp-his-pro-trp-ala-ala-met-tyr-lys-Gly-Gly-Gly-lys(Biotin)-NH2 [ig] | Does Not Bind (MESF Value below 15 fluorescent units) |
| H-phe-trp-his-pro-trp-ala-met-ala-tyr-lys-Gly-Gly-Gly-lys(Biotin)-NH2 [Peptide 1h] | Low (MESF Value from 15 to 300 fluorescent units) |
| H-phe-trp-his-pro-trp-ala-met-met-ala-lys-Gly-Gly-Gly-lys(Biotin)-NH2 [Peptide 1i] | Low (MESF Value from 15 to 300 fluorescent units) |
| H-phe-trp-his-pro-trp-ala-met-met-tyr-ala-Gly-Gly-Gly-lys(Biotin)-NH2 [Peptide 1j] | High (MESF value>1000 fluorescent units) |
| H-phe-trp-his-pro-trp-ala-met-met-tyr-lys-Gly-Gly-Gly-lys(Biotin)-NH2 [Peptide 1a] | High (MESF value>1000 fluorescent units) |

same assay, conditions: Table 2, 1a analogs

| Substance | Classification of RBC binding properties (MESF) |
| --- | --- |
| Ac-phe-trp-his-pro-trp-ala-met-met-tyr-lys-Gly-Gly-Gly-lys(Biotin)-NH2 [Peptide 2g] | Does Not Bind (MESF Value below 15 fluorescent units) |
| H-ala-pro-met-phe-tyr-trp-lys-his-met-trp-Gly-Gly-Gly-lys(Biotin)-NH2 [Peptide 2f] | Low (MESF Value from 15 to 300 fluorescent units) |
| H-phe-trp-his-L-Pro-trp-ala-met-met-tyr-lys-Gly-Gly-Gly-lys(Biotin)-NH2 [Peptide 2l] | Low (MESF Value from 15 to 300 fluorescent units) |
| H-phe-trp-his-NMeGly-trp-ala-met-met-tyr-lys-Gly-Gly-Gly-lys(Biotin)-NH2 [Peptide 2k] | Low (MESF Value from 15 to 300 fluorescent units) |
| H-phe-trp-his-pro-trp-ala-ala-ala-tyr-lys-Gly-Gly-Gly-lys(Biotin)-NH2 [Peptide 2b] | High (MESF value>1000 fluorescent units) |
| H-phe-trp-his-pro-trp-ala-leu-leu-tyr-lys-Gly-Gly-Gly-lys(Biotin)-NH2 [Peptide 2c] | Does Not Bind (MESF Value below 15 fluorescent units) |
| H-phe-trp-his-pro-trp-ala-met-met-tyr-lys-Gly-Gly-Gly-(H-phe-trp-his-pro-trp-ala-met-met-tyr-lys-Gly-Gly-Gly)-lys-Gly-Gly-lys(Biotin)-NH2 [Peptide 2d] | High (MESF value>1000 fluorescent units) |
| H-phe-trp-his-pro-trp-ala-met-met-tyr-lys-Gly-Gly-Gly-cys(trt)-Gly-lys(Biotin)-NH2 [Peptide 2h] | Does Not Bind (MESF Value below 15 fluorescent units) |
| H-phe-trp-his-pro-trp-ala-met-met-tyr-lys-Gly-Gly-Gly-lys(Biotin)-NH2 [Peptide 1a] | High (MESF value>1000 fluorescent units) |
| H-phe-trp-his-pro-trp-ala-met-met-tyr-lys-Gly-Gly-Gly-lys(C18diacid)-lys(Biotin)-NH2 [Peptide 2e] | Medium (MESF Value from 300 to 1000 fluorescent units) |
| H-phe-trp-his-pro-trp-ala-nle-nle-tyr-lys-Gly-Gly-Gly-lys(Biotin)-NH2 [Peptide 2a] | Medium (MESF Value from 300 to 1000 fluorescent units) |
| H-phe-trp-his-αMepro-trp-ala-met-met-tyr-lys-Gly-Gly-Gly-lys(Biotin)-NH2 [Peptide 2m] | Does Not Bind (MESF Value below 15 fluorescent units) |
| H-phe-trp-ser-pro-trp-ala-met-met-tyr-lys-Gly-Gly-Gly-lys(Biotin)-NH2 [Peptide 2i] | Low (MESF Value from 15 to 300 fluorescent units) |
| H-phe-trp-tyr-pro-trp-ala-met-met-tyr-lys-Gly-Gly-Gly-lys(Biotin)-NH2 [Peptide 2j] | Low (MESF Value from 15 to 300 fluorescent units) |

same assay, conditions: Table 3, structurally-diverse all-D-peptides

| Substance | Classification of RBC binding properties (MESF) |
| --- | --- |
| H-leu-his-his-pro-trp-pro-tyr-phe-tyr-lys-Gly-Gly-Gly-lys(Biotin)-NH2 [Peptide 3e] | Low (MESF Value from 15 to 300 fluorescent units) |
| H-leu-phe-his-pro-trp-pro-ala-phe-pro-lys-Gly-Gly-Gly-lys(Biotin)-NH2 [Peptide 3l] | High (MESF value>1000 fluorescent units) |
| H-leu-trp-his-pro-trp-ala-met-pro-glu-lys-Gly-Gly-Gly-lys(Biotin)-NH2 [Peptide 3m] | Low (MESF Value from 15 to 300 fluorescent units) |
| H-leu-trp-his-pro-tyr-leu-phe-leu-trp-lys-Gly-Gly-Gly-lys(Biotin)-NH2 [Peptide 3f] | Does Not Bind (MESF Value below 15 fluorescent units) |
| H-leu-trp-ser-pro-val-phe-phe-phe-pro-lys-Gly-Gly-Gly-lys(Biotin)-NH2 [Peptide 3n] | Does Not Bind (MESF Value below 15 fluorescent units) |
| H-met-phe-his-pro-phe-ala-phe-met-tyr-lys-Gly-Gly-Gly-lys(Biotin)-NH2 [Peptide 3o] | Medium (MESF Value from 300 to 1000 fluorescent units) |
| H-phe-phe-his-pro-phe-ala-trp-phe-his-lys-Gly-Gly-Gly-lys(Biotin)-NH2 [Peptide 3h] | Low (MESF Value from 15 to 300 fluorescent units) |
| H-phe-phe-his-pro-trp-ser-trp-thr-ser-lys-Gly-Gly-Gly-lys(Biotin)-NH2 [Peptide 3a] | High (MESF value>1000 fluorescent units) |
| H-phe-phe-his-pro-tyr-Gly-leu-phe-val-lys-Gly-Gly-Gly-lys(Biotin)-NH2 [Peptide 3b] | Medium (MESF Value from 300 to 1000 fluorescent units) |
| H-phe-phe-his-val-pro-val-phe-ser-val-lys-Gly-Gly-Gly-lys(Biotin)-NH2 [Peptide 3i] | Medium (MESF Value from 300 to 1000 fluorescent units) |
| H-phe-trp-his-pro-trp-ala-met-met-tyr-lys-Gly-Gly-Gly-lys(Biotin)-NH2 [Peptide 1a] | High (MESF value>1000 fluorescent units) |
| H-phe-trp-his-pro-trp-phe-phe-lys-thr-lys-Gly-Gly-Gly-lys(Biotin)-NH2 [Peptide 3c] | Low (MESF Value from 15 to 300 fluorescent units) |
| H-phe-trp-tyr-val-his-thr-thr-Gly-trp-lys-Gly-Gly-Gly-lys(Biotin)-NH2 [Peptide 3j] | Does Not Bind (MESF Value below 15 fluorescent units) |
| H-phe-trp-val-pro-phe-trp-trp-lys-thr-lys-Gly-Gly-Gly-lys(Biotin)-NH2 [Peptide 3d] | Low (MESF Value from 15 to 300 fluorescent units) |
| H-phe-tyr-tyr-pro-trp-pro-val-thr-tyr-lys-Gly-Gly-Gly-lys(Biotin)-NH2 [Peptide 3k] | Does Not Bind (MESF Value below 15 fluorescent units) |
| H-pro-his-his-pro-phe-ala-leu-phe-leu-lys-Gly-Gly-Gly-lys(Biotin)-NH2 [Peptide 3q] | Medium (MESF Value from 300 to 1000 fluorescent units) |
| H-pro-phe-tyr-thr-tyr-his-trp-tyr-ser-lys-Gly-Gly-Gly-lys(Biotin)-NH2 [Peptide 3p] | Does Not Bind (MESF Value below 15 fluorescent units) |
| H-ser-Gly-val-asp-thr-tyr-leu-thr-his-lys-Gly-Gly-Gly-lys(Biotin)-NH2 [Peptide 3r] | Medium (MESF Value from 300 to 1000 fluorescent units) |
| H-ser-trp-his-pro-val-trp-Gly-trp-leu-lys-Gly-Gly-Gly-lys(Biotin)-NH2 [Peptide 3g] | Low (MESF Value from 15 to 300 fluorescent units) |
| H-trp-tyr-leu-pro-pro-leu-trp-his-ala-lys-Gly-Gly-Gly-lys(Biotin)-NH2 [Peptide 3u] | Does Not Bind (MESF Value below 15 fluorescent units) |
| H-trp-val-pro-Gly-phe-trp-tyr-his-tyr-lys-Gly-Gly-Gly-lys(Biotin)-NH2 [Peptide 3t] | Low (MESF Value from 15 to 300 fluorescent units) |
| H-tyr-phe-leu-tyr-leu-pro-tyr-his-thr-lys-Gly-Gly-Gly-lys(Biotin)-NH2 [Peptide 3v] | Low (MESF Value from 15 to 300 fluorescent units) |
| H-tyr-trp-val-pro-met-trp-val-his-val-lys-Gly-Gly-Gly-lys(Biotin)-NH2 [Peptide 3w] | Low (MESF Value from 15 to 300 fluorescent units) |
| H-val-phe-his-pro-phe-trp-Gly-tyr-phe-lys-Gly-Gly-Gly-lys(Biotin)-NH2 [Peptide 3s] | Does Not Bind (MESF Value below 15 fluorescent units) |
